Test results: patent publication US6949679B1, “Polyamine transport inhibitors” (Universite Laval, priority 1998, dated 2005)
Where two headings read alike, the source gives them in different places.

How the values were obtained:
Assay type in all cases: cell-based, human
polyamine transporter = assay: Inhibition of [3H]putrescine uptake in ZR-75-1 cells; conditions: for Mode of inhibition of [3H]putrescine uptake: Lineweaver-Burke, DESC up to 100 μM, MESC up to 200 μM; for Ki: ZR-75-1 cells
Description: The rate of putrescine and spermidine transport was determined in ZR-75-1 cells incubated in serum-free RPMI 1640 medium as described (Lessard, M., Zhao, C., Singh, S. M. and Poulin, R. 1995. J. Biol. Chem. 270: 1685-1694), using [^3H]putrescine (30 Ci/mol) and [^3H]spermidine (20 Ci/mol), respectively as substrates for a 20 minute-assay period. Spermine uptake was similarly determined, using 1 μM [^14C]spermine (32 Ci/mol) as substrate. Uptake activity was expressed per amount of DNA as fluorometrically determined using 3,4-diaminobenzoic acid (Simard, J., Dauvois, S., Haagensen, D. E., Lėvesque, C., Mėrand, Y. and Labrie, F. 1990. Endocrinology, 126: 3223-3231). For the determination of spermidine uptake activity in CHO-K1 cells, 80% confluent cell monolayers were rinsed twice with PBS and incubated for 20 minutes at 37° C. in 400 μl of buffer A (20 mM Tris-HCl, pH 7.4; 0.42 mM CaCl2; 0.41 mM MgSO4; 103 mM NaCl; 5.7 mM KCl; 1.1 mM D-glucose) containing 5 μM [^3H]spermidine (20 Ci/mol). Cell cultures were then washed twice with 1 ml PBS containing 5.7 mM sym-norspermidine. Cells were then lysed with 200-μl aliquot of 1 N NaOH and incubated for 30 minutes at 60° C. After neutralization with 200 μl of 1 N HCl, radioactivity was determined from a 250-μl of the cell lysate by scintillation counting. Uptake activity was expressed per amount of total cellular protein as determined by the method of Bradford (Bradford, M. M. 1976. Anal. Biochem. 72: 248-254). Non-specific binding of radioactive substrate was similarly determined in parallel for both cell lines after a 15 second-incubation with 400 μl of ice-cold uptake solution.
Kinetic analysis of polyamine transport was performed by determining uptake activity in the presence of a 3 μM [^3H]putrescine or 1 μM [^3H]spermidine plus increasing concentrations of nonradioactive substrate. K[…] Ki and Vmax values were then estimated by Lineweaver-Burke analysis. For competitive inhibitors, Ki values were also estimated by measuring uptake activity in the presence of logarithmically increasing concentrations of antagonist, and using the Cheng-Prusoff equation (Cheng, Y.-C. and Prusoff, W. H. 1973. Biochem. Pharmacol. 22: 3099-3108) by iterative curve fitting for a sigmoidal curve. For mixed competitive/noncompetitive inhibition, two methods were used to calculate kinetic constants. First, the equation [drawing 2] where v, s, and i are the transport velocity, substrate concentration and inhibitor concentration respectively, was used to calculate the inhibition constants for inhibitor/carrier complex formation (Ki) and carrier/inhibitor/substrate complex formation (Ki′) (Dixon, M. and Webb, E. C. 1976. Enzymes, 3rd Ed., Academic Press, San Diego, Calif.). Alternatively, the value of Ki for a mixed competitor/non-competitor was estimated from the intersect of equations v^−1 vs i at two different substrate concentrations (Dixon, M. and Webb, E. C. 1976. Enzymes, 3rd Ed., Academic Press, San Diego, Calif.). Intracellular Accumulation
In order to evaluate the effectiveness of dimeric triamines as polyamine transport inhibitors, we synthesized N,N′-bis(3-aminopropyl),N,N′-bis(4-aminobutyl)cystamine or BABAC (structure 1, FIG. 25; FIG. 31), and its thiol form N-(3-aminopropyl),N-(4-aminobutyl)cysteamine or AAC (FIG. 31) according to Scheme 4 described above (FIG. 30), using spermidine as a precursor polyamine. The ability of BABAC and AAC to inhibit the intracellular uptake of radio-labeled putrescine and spermidine in the ZR-75-1 human breast cancer cell line was then determined according to standard published procedures (Lessard, et al. and Poulin, et al.) Briefly, ZR-75-1 cells were grown for four days in twenty-four well plates in RPMI 1640 medium supplemented with 10% fetal bovine serum.

ZR-75-1 cells [1] = assay: Intracellular accumulation of inhibitor and polyamine contents (HPLC) in ZR-75-1 cells
ZR-75-1 cells [2] = assay: Effect on ZR-75-1 cell proliferation (11 days, DNA content)
Description: For growth studies, ZR-75-1 cells were cultured in MEZR medium or in phenol red-free RPMI 1640 supplemented with 2 mM L-glutamine, 1 mM sodium pyruvate, 15 mM Hepes, antibiotics, 1 nM 17β-estradiol, 0.5 μg of bovine insulin per ml and 5% (v/v) charcoal-treated fetal bovine serum (SD medium), as indicated in the text. When polyamines or polyamine analogs were added to serum-containing media, 1 mM aminoguanidine was added to inhibit bovine serum amine oxidase (BSAO) activity (Morgan, D. M. L. 1989, in The Physiology of Polyamines (Bachrach, U., and Heimer, Y. M. eds) Vol. I, pp. 203-229, CRC Press, Boca Raton). The effect of the transport inhibitors on cell growth was measured by incubating ZR-75-1 cells for 11 days in medium supplemented with antagonist, polyamines and/or 1 mM DFMO as indicated, followed by colorimetric determination of DNA content with 3,4-diaminobenzoic acid (Simard, J., Dauvois, S., Haagensen, D. E., Lėvesque C., Mėrand, Y. and Labriė, F. 1990. Endocrinology 126: 3223-3231). Medium was changed every other day in these experiments because of the slow reaction of the compound with an unknown component present in the IMEM and RPMI 1640 medium formulation.
The biocompatibility of DESC, MESC, and DEASC was thus evaluated during a long-term (11-day) incubation with ZR-75-1 cells grown in RPMI 1640 containing 10% (v/v) FBS in the absence and presence of 1 mM aminoguanidine. […] Weak growth inhibition caused by the mixed MESC-cysteamine disulfide, however, apparently involved degradation by a copper amine oxidase.

[3] = this work, DEASC: Ki of mixed competitive/non-competitive model, read-out: Ki, putrescine transport
[4] = 200 μM compound + 200 μM CHX, 1 h
[5] = 200 μM compound + 200 μM CHX, 6 h

| DESC accumulation as % of accumulation measured for spermine under identical conditions (ZR-75-1 cells [1]; 200 μM DESC, 6-hour incubation) | DESC intracellular content (ZR-75-1 cells [1]; [4]) [nmol/mg protein] | DESC intracellular content (ZR-75-1 cells [1]; [5]) [nmol/mg protein] | Compound | Mode of inhibition of [3H]putrescine uptake (polyamine transporter) | Ki (polyamine transporter; [3]) [µM] | Spermine intracellular content (ZR-75-1 cells [1]; 50 μM compound, 1 h) [nmol/mg protein] | Spermine intracellular content (ZR-75-1 cells [1]; 50 μM compound, 6 h) [nmol/mg protein] | Spermine intracellular content (ZR-75-1 cells [1]; 200 μM compound, 1 h) [nmol/mg protein] | Spermine intracellular content (ZR-75-1 cells [1]; 200 μM compound, 6 h) [nmol/mg protein] | Decrease in cell growth (ZR-75-1 cells [2]; 200 μM, not blocked by aminoguanidine) [%] | Ki (polyamine transporter; FIG. 32, 20 μM and 3 μM substrate, respectively, read-out: Apparent Ki, putrescine uptake) [µM] | Spermidine intracellular content (ZR-75-1 cells [1]; [4]) [nmol/mg protein] | Spermine intracellular content (ZR-75-1 cells [1]; [4]) [nmol/mg protein] | Spermine intracellular content (ZR-75-1 cells [1]; [5]) [nmol/mg protein] | Effect on cell growth (ZR-75-1 cells [2]; 50 μM, with or without 1 mM aminoguanidine) | Effect on cell growth (ZR-75-1 cells [2]; 200 μM) |
| --- | --- | --- | --- | --- | --- | --- | --- | --- | --- | --- | --- | --- | --- | --- | --- | --- |
|  |  |  | NCCCNCCCC(NCCCN)C(=O)NCCS (stereo not drawn) [MESC, N-(2-mercaptoethyl)spermine-5-carboxamide] | pure competitive inhibitors | 22 ± 3 | 7.77 ± 0.06 | 8.13 ± 0.17 | 8.93 ± 0.53 | 8.32 ± 0.43 | 35 |  |  |  |  |  |  |
| about 1.5% | <0.01 | 0.10 | NCCCNCCCC(NCCCN)C(=O)NCCSSCCNC(=O)C(CCCNCCCN)NCCCN (stereo not drawn) [DESC, 2,2′-dithiobis(N-ethyl-spermine-5-carboxamide)] | pure competitive inhibitors | 1.6 ± 0.5 | 8.27 ± 0.81 |  | 8.77 ± 0.79 | 8.66 ± 0.26 |  | 0.54 | 0.75 ± 0.04 | 9.57 ± 0.31 | 9.55 ± 0.13 | only mildly growth inhibitory | abrupt, aminoguanidine-resistant increase in toxicity |
